Reference: patent US20050043333A1, “Quinazolinone derivative” (Fujisawa Pharmaceutical Co., Ltd, priority 2001, published 2005)

Target: recombinant human PARP (Homo sapiens, UniProt P09874)
Test: PARP Inhibitory Activity (In Vitro Assay)
Assay type: biochemical
Details: 32P-NAD, 0.05 mM NAD, activated DNA, 15 minutes at room temperature
Method: Incubation was for 15 minutes at a room temperature and the reaction was stopped by the addition of 200 μl of ice-cold 20% trichloroacetic acid followed by rapid filtration through GF/B filters. The filters were treated with scintillation fluid and acid-insoluble counts were measured for quantification of unit activity.

recombinant human PARP, sequence (P09874 whole entry): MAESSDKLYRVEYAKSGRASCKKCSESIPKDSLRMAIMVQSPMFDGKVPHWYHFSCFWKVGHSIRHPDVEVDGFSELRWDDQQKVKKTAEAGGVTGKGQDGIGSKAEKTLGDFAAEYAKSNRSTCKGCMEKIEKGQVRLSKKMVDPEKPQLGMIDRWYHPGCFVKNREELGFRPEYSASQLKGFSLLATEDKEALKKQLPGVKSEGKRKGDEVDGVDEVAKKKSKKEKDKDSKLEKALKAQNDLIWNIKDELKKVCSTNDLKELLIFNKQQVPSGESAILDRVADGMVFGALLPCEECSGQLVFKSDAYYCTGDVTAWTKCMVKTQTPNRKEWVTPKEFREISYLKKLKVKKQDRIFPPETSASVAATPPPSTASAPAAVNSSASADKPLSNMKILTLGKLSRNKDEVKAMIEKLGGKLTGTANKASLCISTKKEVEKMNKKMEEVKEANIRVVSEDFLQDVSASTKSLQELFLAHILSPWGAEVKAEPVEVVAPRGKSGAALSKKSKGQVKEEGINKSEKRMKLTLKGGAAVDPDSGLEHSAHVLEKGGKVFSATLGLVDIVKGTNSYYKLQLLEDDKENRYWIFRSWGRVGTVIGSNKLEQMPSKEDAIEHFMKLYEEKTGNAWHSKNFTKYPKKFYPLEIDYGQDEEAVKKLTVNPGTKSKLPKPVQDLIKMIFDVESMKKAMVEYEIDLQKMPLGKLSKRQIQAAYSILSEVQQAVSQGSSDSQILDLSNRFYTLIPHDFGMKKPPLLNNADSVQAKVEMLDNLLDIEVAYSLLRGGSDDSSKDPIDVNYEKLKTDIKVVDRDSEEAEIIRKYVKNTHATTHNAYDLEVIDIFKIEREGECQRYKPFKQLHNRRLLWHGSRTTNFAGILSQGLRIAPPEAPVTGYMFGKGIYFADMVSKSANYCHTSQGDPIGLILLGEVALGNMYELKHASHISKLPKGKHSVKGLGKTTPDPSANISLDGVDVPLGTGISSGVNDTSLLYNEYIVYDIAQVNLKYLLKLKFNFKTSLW

For O=c1[nH]c(C2=CC(N3CC=C(c4ccccc4)CC3)CC2)nc2ccccc12 (stereo not shown) [Compound A, 2-[3-(4-phenyl-3,6-dihydro-1(2H)-pyridinyl)-1-cyclopenten-1-y 1]-4(3H)-quinazolinone], the IC50 was < 500 nM.
